In patent US7135307B2, “Gamma three protease” (Merck & Co., Inc., priority 2001, dated 2006):
Where a SMILES comes first, the peptide text is derived from it. [ ]: non-standard residue; d: D form. The star is where a group is joined. Sta = CC(C)C[C@H](N)[C@@H](O)CC(=O)O; Isovaleryl = CC(C)CC(=O)*

What was measured:
Type in all cases: biochemical
γ3 protease [1] = assay: Inhibition of γ3 protease production of Aβ peptides by pepstatin A, ECL detection
Description: (§1) Another method for product detection, employing electrochemiluminescence with a capture antibody and an antibody specific for either Aβ1-40 or Aβ1-42, is described in Example 6 below.
(§2) Aβ peptides were detected using a sandwich assay employing an antibody to capture the peptide and an antibody to detect the presence of the peptide. Detection was achieved by using electrochemiluminescence (ECL) (Yang et al., 1994, Bio/Technology 12:193–194; Khorkova et al., 1998, J. Neurosci. Meth. 82:159–166) and an Origen 1.5 Analyzer (Igen Inc., Gaithersburg, Md.).
(§3) Capture was performed using the 4G8 murine monoclonal antibody (Senetek PLC, Maryland Heights, Mo.). The 4G8 murine monoclonal antibody binds an epitope in the Aβ peptide (about amino acids 18–21 of SEQ.ID.NO.:3) that is immediately distal to the α-secretase cleavage site. The 4G8 monoclonal antibody was biotinylated with Biotin-LC-Sulfo-NHS-Ester (Igen Inc., Gaithersburg, Md.).
Detection was achieved using the G2-10 murine monoclonal antibody and the FCA3542 rabbit antibody. The G2-10 murine monoclonal antibody (provided by K. Beyreuther, University of Heidelberg, Germany) binds the C-terminus that is exposed after γ3 protease-mediated cleavage to generate amino acid 40 of the Aβ1-40 peptide. (Ida et al., 1996, J. Biol. Chem. 271:22908–22914). The FCA3542 rabbit antibody (provided by F. Checler, IPMC du CNRS, Valbonne, France) binds the C-terminus that is exposed after γ3 protease-mediated cleavage to generate amino acid 42 of the Aβ1-42 peptide. (Barelli et al., 1997, Mol. Med. 3:695–707.)
The G2-10 and FCA3542 antibodies were ruthenylated with TAG-NHS Ester (Igen Inc., Gaithersburg, Md.). Aβ(x-40) was detected with biotinylated 4G8 and ruthenylated G2-10. Aβ(x-42) was detected with biotinylated 4G8 and ruthenylated FCA3542.

[2] = tested on: γ-secretase activity associated with presenilins 1 and 2; assay: γ-secretase activity in ES-PBD18 membranes (wild-type mouse embryonic stem cells), generation of Aβ1-40 and Aβ1-42; conditions: 1 μM inhibitor, FIG. 2A, 2B
Description: The presence of γ3 protease activity having a pH optimum of about 6 is clearly seen. […] Again, the presence of γ3 protease activity having a pH optimum of about 6 is clearly seen. The source of γ3 protease was ES-PBD18 membranes. ES-PBD18 membranes were prepared from wild-type mouse embryonic stem cells according to the procedure of Example 11.
as §1, §2
• 1. […]

γ3 protease [3] = assay: γ3 protease activity in HeLa S3 cell membranes, C100Flag substrate, ECL detection of Aβ
Description: The source of γ3 protease was a membrane preparation from HeLa S3 cells prepared as in Example 9. The production of the γ3 protease substrate and the conditions for cleavage are described in Example 10. The procedure for determining whether the substrate had been cleaved by γ3 protease was as in Example 6.
as §2, §3
Detection was achieved using the G2-10 murine monoclonal antibody and the FCA3542 rabbit antibody. […]
The G2-10 and FCA3542 antibodies were ruthenylated with TAG-NHS Ester (Igen Inc., Gaithersburg, Md.). Aβ(x-40) was detected with biotinylated 4G8 and ruthenylated G2-10. Aβ(x-42) was detected with biotinylated 4G8 and ruthenylated FCA3542. […]

[4] = tested on: γ-secretase activity associated with presenilin-1/presenilin-2; assay: γ-secretase activity in HeLa S3 cell membranes, C100Flag substrate, ECL detection of Aβ

Q: For `CC(C)CC(=O)N[C@H](C(=O)N[C@H](C(=O)N[C@@H](CC(C)C)[C@@H](O)CC(=O)N[C@@H](C)C(=O)N[C@@H](CC(C)C)[C@@H](O)CC(=O)O)C(C)C)C(C)C` [pepstatin A] (Isovaleryl-VV[Sta]A[Sta]-OH), which “inhibition of production of Aβ1-40 by γ3 protease” value (γ3 protease [1]; FIG. 3A) is on record?
A: inhibits

Q: What about the “inhibition of production of Aβ1-42 by γ3 protease” value (γ3 protease [1]; FIG. 3B) of the same compound?
A: inhibits

Q: What about the “inhibition of γ3 protease activity” value (γ3 protease [1]; general statement (aspartyl class protease)) of the same compound?
A: inhibited

Q: Which results are given for `CC(C)C[C@H](NC(=O)[C@H](Cc1ccccc1)C[C@@H](O)[C@H](Cc1ccccc1)NC(=O)OC(C)(C)C)C(=O)N[C@@H](Cc1ccccc1)C(N)=O` [L-685,458, {1S-Benzyl-4-R-[1-(1S-carbamoyl-2-phenylethylcarbamoyl)-1S-3-methylbutylcarbamoyl]-2R-hydroxy-5-phenylpentyl}carbamic acid tert-butyl ester]?
A: inhibition of γ-secretase activity associated with presenilins 1 and 2 [2]: essentially completely inhibit; susceptibility of γ3 protease activity to inhibition (γ3 protease [3]; general statement): not susceptible to inhibition; γ-secretase-type activity remaining in the presence of inhibitor (γ3 protease) (γ3 protease [3]; pH 6.0 (pH optimum for γ3 protease), HeLa S3 membranes, FIG. 1): significant γ-secretase activity remains; inhibition of the activity of the γ secretase complex containing presenilin-1 or presenilin-2 ([4]; general statement): inhibited; block of γ-secretase activity ([4]; pH 7.0 (pH optimum for presenilin-1/presenilin-2 associated γ-secretase), HeLa S3 membranes, FIG. 1): essentially completely block
